Measured values from patent publication US11566002B2, “Substituted tetrahydrocyclopenta[C]pyrroles, substituted dihydropyrrolizines, analogues thereof, and methods using same” (priority 2018, dated 2023).

tested on: HBV rcDNA; assay: HepDE19 assay with bDNA quantitation of HBV rcDNA; format: cell-based, hepatitis B virus; details: HepDE19 cells, Tet-free medium, 7 day-incubation, rcDNA measured by Quantigene 2.0 bDNA assay, top concentration 25 μM; read-out: DE-19 bDNA EC50
In short: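 HepDE19 cells (50,000/well) switched to Tet-free medium, then treated 7 days at 37° C with compounds from 25 μM (½-log, 8-point, duplicate; 0.5% DMSO). rcDNA quantified by bDNA with HBV probes; EC50/EC90 by 4-parameter fit. CC50 from CTG ATP on 5,000 cells/well after 4 days.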

Row | Structure (SMILES) | EC50
1 | Cn1cc2c(c1C(=O)Nc1ccc(F)c(Cl)c1)CCCCC2N (stereo not drawn) [Compound 87, 4-Amino-N-(3-chloro-4-fluorophenyl)-2-methyl-2,4,5,6,7,8-hexahydro cyclohepta[c]pyrrole-1-carboxamide] | 1600 nM
2 | Cn1cc2c(c1C(=O)Nc1ccc(F)c(Cl)c1)CCC2NC(=O)OC[C@H]1CCC(=O)N1 (single isomer, unassigned) [Compound 120] | 210 nM
3 | Cn1ncc(COC(=O)NC2CCc3c2cn(C)c3C(=O)Nc2ccc(F)c(Cl)c2)n1 (single isomer, unassigned) [Compound 128, (2-Methyl-2H-1,2,3-triazol-4-yl)methyl (1-((3-chloro-4-fluorophenyl)carbamoyl)-2-methyl-2,4,5,6-tetrahydrocyclopenta[c]pyrrol-4-yl)carbamate] | 1700 nM
4 | Cn1cc2c(c1C(=O)Nc1ccc(F)c(Cl)c1)CCC2NC(=O)C1CC1 (single isomer, unassigned) [Compound 23, N-(3-Chloro-4-fluorophenyl)-4-(cyclopropanecarboxamido)-2-methyl-2,4,5,6-tetrahydrocyclopenta [c]pyrrole-1-carboxamide] | 120 nM
5 | Cn1c(C(=O)Nc2ccc(F)c(Cl)c2)c2c(c1C1CC1)C(NC(=O)OCc1nc[nH]n1)CC2 (single isomer, unassigned) [Compound 98, (1H-1,2,4-Triazol-3-yl)methyl (1-((3-chloro-4-fluorophenyl)carbamoyl)-3-cyclopropyl-2-methyl-2,4,5,6-tetrahydrocyclopenta[c]pyrrol-4-yl)carbamate] | 15000 nM
6 | Cn1cc(COC(=O)NC2CCc3c2cn(C)c3C(=O)Nc2ccc(F)c(Cl)c2)nn1 (single isomer, unassigned) [Compound 116, (1-Methyl-1H-1,2,3-triazol-4-yl)methyl (1-((3-chloro-4-fluorophenyl)carbamoyl)-2-methyl-2,4,5,6-tetrahydrocyclopenta[c]pyrrol-4-yl)carbamate] | 50 nM
7 | Cn1c(Cl)c2c(c1C(=O)Nc1ccc(F)c(Cl)c1)CCC2NC(=O)OCc1cn[nH]n1 (single isomer, unassigned) [Compound 107, (2H-1,2,3-Triazol-4-yl)methyl (3-chloro-1-((3-chloro-4-fluorophenyl)carbamoyl)-2-methyl-2,4,5,6-tetrahydrocyclopenta[c]pyrrol-4-yl)carbamate] | 10 nM
8 | CNC(=O)NC1CCc2c1c[nH]c2C(=O)Nc1ccc(F)c(Cl)c1 (single isomer, unassigned) [Compound 11, N-(3-Chloro-4-fluorophenyl)-4-(3-methylureido)-2,4,5,6-tetrahydrocyclopenta[c]pyrrole-1-carboxamide] | 2400 nM
9 | C#CCOC(=O)NC1CCc2c1cn(C)c2C(=O)Nc1ccc(F)c(Cl)c1 (single isomer, unassigned) [Compound 101, Prop-2-yn-1-yl (1-((3-chloro-4-fluorophenyl)carbamoyl)-2-methyl-2,4,5,6-tetrahydrocyclopenta[c]pyrrol-4-yl)carbamate] | 1600 nM
10 | Cn1cc2c(c1C(=O)Nc1ccc(F)c(Cl)c1)CCC2NC(=O)OCc1ccccn1 (stereo not drawn) [Compound 7, pyridin-2-ylmethyl(1-((3-chloro-4-fluorophenyl)carbamoy1)-2-methyl-2,4,5,6-tetrahydrocyclopenta[c]pyrrol-4-yl)carbamate] | 1400 nM
11 | Cn1cc2c(c1C(=O)Nc1ccc(F)c(Cl)c1)CCC2NC(=O)OCc1nc[nH]n1 (single isomer, unassigned) [Compound 57, (1H-1,2,4-Triazol-3-yl)methyl (1-((3-chloro-4-fluorophenyl)carbamoyl)-2-methyl-2,4,5,6-tetrahydrocyclopenta[c]pyrrol-4-yl)carbamate] | 50 nM
12 | Cn1c(C(=O)Nc2ccc(F)c(Cl)c2)c2c(c1C(F)(F)F)C(NC(=O)OCc1nc[nH]n1)CC2 (single isomer, unassigned) [Compound 126, (1H-1,2,4-Triazol-3-yl)methyl (1-((3-chloro-4-fluorophenyl)carbamoyl)-2-methyl-3-(trifluoromethyl)-2,4,5,6-tetrahydrocyclopenta[c]pyrrol-4-yl)carbamate] | 8700 nM
13 | Cn1c(Cl)c2c(c1C(=O)Nc1ccc(F)c(Cl)c1)CCCC2NC(=O)OCc1nc[nH]n1 (single isomer, unassigned) [Compound 134, (1H-1,2,4-Triazol-3-yl)methyl (3-chloro-1-((3-chloro-4-fluorophenyl)carbamoyl)-2-methyl-4,5,6,7-tetrahydro-2H-isoindol-4-yl)carbamate] | 1900 nM
14 | Cn1cc2c(c1C(=O)Nc1ccc(F)c(Cl)c1)CCC2NC(=O)OCC#CC1CC1 (single isomer, unassigned) [Compound 114, 3-Cyclopropylprop-2-yn-1-yl (1-((3-chloro-4-fluorophenyl)carbamoyl)-2-methyl-2,4,5,6-tetrahydrocyclopenta[c]pyrrol-4-yl)carbamate] | 470 nM
15 | Cn1cc2c(c1C(=O)Nc1ccc(F)c(Cl)c1)CCC2NC(=O)OCc1n[nH]nc1C1CC1 (single isomer, unassigned) [Compound 146, (5-Cyclopropyl-2H-1,2,3-triazol-4-yl)methyl (1-((3-chloro-4-fluorophenyl)carbamoyl)-2-methyl-2,4,5,6-tetrahydrocyclopenta[c]pyrrol-4-yl)carbamate] | 9300 nM
16 | Cn1cnc(COC(=O)NC2CCc3c2c(Cl)n(C)c3C(=O)Nc2ccc(F)c(Cl)c2)n1 (single isomer, unassigned) [Compound 52, (1-Methyl-1H-1,2,4-triazol-3-yl)methyl (3-chloro-1-((3-chloro-4-fluorophenyl)carbamoyl)-2-methyl-2,4,5,6-tetrahydrocyclopenta[c]pyrrol-4-yl)carbamate] | 310 nM
17 | Cn1c(Cl)c2c(c1C(=O)Nc1ccc(F)c(Cl)c1)CCCC2NC(=O)OCc1nc[nH]n1 (single isomer, unassigned) [Compound 135, (1H-1,2,4-Triazol-3-yl)methyl (3-chloro-1-((3-chloro-4-fluorophenyl)carbamoyl)-2-methyl-4,5,6,7-tetrahydro-2H-isoindol-4-yl)carbamate] | 180 nM
18 | Cn1cc2c(c1C(=O)Nc1ccc(F)c(Cl)c1)CCC2NC(=O)OCC#CC1CC1 (single isomer, unassigned) [Compound 115, 3-Cyclopropylprop-2-yn-1-yl (1-((3-chloro-4-fluorophenyl)carbamoyl)-2-methyl-2,4,5,6-tetrahydrocyclopenta[c]pyrrol-4-yl)carbamate] | 5400 nM

same assay, conditions: Hepatitis B virus, HepDE19, 168 h, HepDE19 cells, Tet-free medium, 7 day-incubation, rcDNA measured by Quantigene 2.0 bDNA assay, top concentration 25 μM; read-out: DE-19 bDNA EC50

Row | Structure (SMILES) | EC50
19 | Cn1c(Cl)c2c(c1C(=O)Nc1ccc(F)c(Cl)c1)CCC2NC(=O)OCc1nc[nH]n1 (stereo not drawn) [Compound 103, (1H-1,2,4-Triazol-3-yl)methyl (3-chloro-1-((3-chloro-4-fluorophenyl)carbamoyl)-2-methyl-2,4,5,6-tetrahydrocyclopenta[c]pyrrol-4-yl)carbamate] | 20 nM
20 | CNC(=O)NC1CCc2c1c[nH]c2C(=O)Nc1ccc(F)c(Cl)c1 (racemic) [Compound 8, N-(3-chloro-4-fluorophenyl)-4-(3-methylureido)-2,4,5,6-tetrahydrocyclopenta[c]pyrrole-1-carboxamide] | 18000 nM
21 | Cn1cnc(COC(=O)NC2CCc3c2cn(C)c3C(=O)Nc2ccnc(C(F)(F)F)c2)n1 (single isomer, unassigned) [Compound 73, (1-methyl-1H-1,2,4-triazol-3-yl)methyl (2-methyl-1-((2-(trifluoromethyl)pyridin-4-yl)carbamoyl)-2,4,5,6-tetrahydrocyclopenta[c]pyrrol-4-yl)carbamate] | 540 nM
22 | Cn1cnc(COC(=O)NC2CCCc3c2c(Cl)n(C)c3C(=O)Nc2ccc(F)c(Cl)c2)n1 (single isomer, unassigned) [Compound 94, (1-Methyl-1H-1,2,4-triazol-3-yl)methyl (3-chloro-1-((3-chloro-4-fluorophenyl)carbamoyl)-2-methyl-4,5,6,7-tetrahydro-2H-isoindol-4-yl)carbamate] | 440 nM
23 | Cn1cnc(COC(=O)NC2CCc3c2cn(C)c3C(=O)Nc2ccnc(Cl)c2)n1 (single isomer, unassigned) [Compound 68, (1-methyl-1H-1,2,4-triazol-3-yl)methyl (1-((2-chloropyridin-4-yl)carbamoyl)-2-methyl-2,4,5,6-tetrahydrocyclopenta[c]pyrrol-4-yl)carbamate] | 660 nM

same assay, conditions: read-out: DE-19 bDNA EC50; HepDE19 cells, Tet-free medium, 7 day-incubation, rcDNA measured by Quantigene 2.0 bDNA assay, top concentration 25 μM

Row | Structure (SMILES) | EC50
24 | CCC#CCOC(=O)NC1CCc2c1cn(C)c2C(=O)Nc1ccc(F)c(Cl)c1 (single isomer, unassigned) [Compound 113, Pent-2-yn-1-yl(1-((3-chloro-4-fluorophenyl)carbamoyl)-2-methyl-2,4,5,6-tetrahydrocyclopenta[c]pyrrol-4-yl)carbamate] | 120 nM
25 | COC(=O)NC1CCCc2c1cn(C)c2C(=O)Nc1ccc(F)c(Cl)c1 (single isomer, unassigned) [Compound 29, Methyl (1-((3-chloro-4-fluorophenyl)carbamoyl)-2-methyl-4,5,6,7-tetrahydro-2H-isoindol-4-yl)carbamate] | 470 nM
26 | Cn1ccc(COC(=O)NC2CCc3c2cn(C)c3C(=O)Nc2ccc(F)c(Cl)c2)n1 (single isomer, unassigned) [Compound 21, (1-Methyl-1H-pyrazol-3-yl)methyl(1-((3-chloro-4-fluorophenyl)carbamoyl)-2-methyl-2,4,5,6-tetrahydrocyclopenta[c]pyrrol-4-yl)carbamate] | 40 nM
27 | COC(=O)NC1CCc2c1cn(C)c2C(=O)Nc1ccc(F)c(Cl)c1 (single isomer, unassigned) [Compound 5, Methyl 1-(3-chloro-4-fluorophenylcarbamoyl)-2-methyl-2,4,5,6-tetrahydrocyclopenta[c] pyrrol-4-ylcarbamate] | 990 nM
